One may read the IC50 as the concentration that inhibits the measured activity by half.

Each structure is given as a SMILES string.

The first assay concerns spiral strips of rabbit aorta. Nature of the assay: Reduction of calcium-induced contraction of K+-depolarised rabbit aorta spiral strips. Format: cell-based. To be noted: Oryctolagus cuniculus; molar concentration required to reduce the contractile response by 50%; 35 mM potassium, 2 mM calcium ion. The procedure:
The test is performed by mounting spiral strips of rabbit aorta with one end fixed and the other attached to a force transducer. The mounted tissue is immersed in a physiological salt solution containing potassium ion at a concentration of 35 millimole and no calcium. Calcium chloride is added to the bath to give a final calcium ion concentration of 2 millimole. The change in tension caused by the resulting contraction of the tissue is noted. The bath is drained and replaced with fresh salt solution and, 45 minutes later the test is repeated with the addition of the compound being tested in the presence of salt solution and, […] The concentration of compound required to reduce the response by 50% is recorded. The anti-hypertensive activity of the compounds is also evaluated oral administration by measuring the decrease fall in blood pressure in spontaneously hypertensive rats.
Consider `COC(=O)C1=C(C)NC(C)=C(C(=O)OCCN(C)Cc2ccccc2)C1c1cccc([N+](=O)[O-])c1` (stereo not drawn) [control, Nicardipine, reference compound], for which the IC50 amounted to 35 nM.

For `COC(=O)C1=C(C)NC(C)=C(C(=O)OCSC)C1c1cccc2nonc12` (stereo not drawn) [Example 11], the IC50 came to 80 nM.

With `COCOC(=O)C1=C(C)NC(C)=C(C(=O)OC(C)C)C1c1cccc([N+](=O)[O-])c1` (stereo not drawn) [Example 8], the IC50 came to 26 nM.

Take `COCOC(=O)C1=C(C)NC(C)=C(C(=O)OC)C1c1cccc([N+](=O)[O-])c1` (stereo not drawn) [Example 7]: the IC50 came to 42 nM.

Take `COC(=O)C1=C(C)NC(C)=C(C(=O)OCSC)C1c1cccc([N+](=O)[O-])c1` (stereo not drawn) [Example 1, 2,6-dimethyl-4-(3'-nitrophenyl)-1,4-dihydropyridine-3,5-dicarboxylic acid 3-methylthiomethyl ester 5-methyl ester]: the IC50 stood at 4 nM.

`CCOC(=O)C1=C(C)NC(C)=C(C(=O)OCSC)C1c1cccc([N+](=O)[O-])c1` (stereo not drawn) [Example 2]: the IC50 worked out at 20 nM.

Turning to `CCSCOC(=O)C1=C(C)NC(C)=C(C(=O)OC)C1c1cccc([N+](=O)[O-])c1` (stereo not drawn) [Example 4], the IC50 was 17 nM.

For `COC(=O)C1=C(C)NC(C)=C(C(=O)OCSC)C1c1cccc(Cl)c1Cl` (stereo not drawn) [Example 5], the IC50 was 29 nM.

As for `COCOC(=O)C1=C(C)NC(C)=C(C(=O)OC)C1c1cccc(Cl)c1Cl` (stereo not drawn) [Example 10], the IC50 came to 20 nM.

Consider `COC(=O)C1=C(C)NC(C)=C(C(=O)OCSC)C1c1ccccc1[N+](=O)[O-]` (stereo not drawn) [Example 12], for which the IC50 stood at 11 nM.

With `CSCOC(=O)C1=C(C)NC(C)=C(C(=O)OC(C)C)C1c1cccc([N+](=O)[O-])c1` (stereo not drawn) [Example 3], the IC50 is 56 nM.

On to `COC(=O)C1=C(C)NC(C)=C(C(=O)OCSc2ccccc2)C1c1cccc([N+](=O)[O-])c1` (stereo not drawn) [Example 13, 2,6-dimethyl-4-(3-nitrophenyl)-1,4-dihydropyridine-3,5-dicarboxylic acid 3-phenylthiomethyl, 5-methylester], for which the IC50 was found to be 142 nM.

`COC(=O)C1=C(C)NC(C)=C(C(=O)OCSC)C1c1ccccc1C(F)(F)F` (stereo not drawn) [Example 6]: the IC50 is 19 nM.

Regarding `CCOCOC(=O)C1=C(C)NC(C)=C(C(=O)OC)C1c1cccc([N+](=O)[O-])c1` (stereo not drawn) [Example 9], the IC50 turned out to be 29 nM.

Staying with this assay, now noted: ranking by IC50 in Table 1.
As for `COC(=O)C1=C(C)NC(C)=C(C(=O)OCSC)C1c1cccc([N+](=O)[O-])c1` (stereo not drawn) [Example 1, 2,6-dimethyl-4-(3'-nitrophenyl)-1,4-dihydropyridine-3,5-dicarboxylic acid 3-methylthiomethyl ester 5-methyl ester], the “activity ranking in words (the smaller the concentration, the more active)” value is “most active compound”.

Source of the values: patent US5089624A, “Dihydropyridine derivatives” (Yuhan Corporation, priority 1988, dated 1992).
